Laboratory results as given in PubChem BioAssay (NCI).
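1) Cells in 96-well plates. 2) Compound, 48 h, 5 concentrations. 3) Linear interpolation between surrounding doses. 4) Unreached endpoint = highest concentration. Here, GI50 denotes the concentration required for 50% inhibition of growth. TGI marks complete inhibition of growth.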

Columns and labels:
Test in all cases: NCI tumour cell line growth inhibition, 48 h
[1] = test system: BT-549 breast
[2] = test system: MCF7 breast
[3] = test system: EKVX NSCLC
[4] = test system: HS 578T breast
[5] = test system: NCI/ADR-RES ovarian
[6] = test system: MALME-3M melanoma
[7] = test system: LOX IMVI melanoma
[8] = test system: HCC-2998 colon
[9] = test system: CCRF-CEM leukemia
[10] = test system: OVCAR-5 ovarian
[11] = test system: RPMI-8226 leukemia
[12] = test system: OVCAR-8 ovarian
[13] = test system: HOP-62 NSCLC
[14] = test system: COLO 205 colon
[15] = test system: SNB-19 CNS
[16] = test system: NCI-H522 lung
[17] = test system: HCT-15 colon
[18] = test system: DU-145 prostate
[19] = test system: U251 CNS
[20] = test system: HCT-116 colon
[21] = test system: HOP-92 NSCLC
[22] = test system: UO-31 renal
[23] = test system: CAKI-1 renal
[24] = test system: NCI-H23 lung
[25] = test system: HT29 colon
[26] = test system: KM12 colon
[27] = test system: T-47D breast
[28] = test system: UACC-62 melanoma
[29] = test system: SK-OV-3 ovarian
[30] = test system: SF-295 CNS
[31] = test system: SK-MEL-2 melanoma
[32] = test system: IGROV1 ovarian
[33] = test system: 786-0 renal
[34] = test system: A498 renal
[35] = test system: MDA-MB-231 breast
[36] = test system: TK-10 renal
[37] = test system: SW-620 colon
[38] = test system: OVCAR-4 ovarian
[39] = test system: NCI-H460 lung
[40] = test system: NCI-H226 lung
[41] = test system: SK-MEL-5 melanoma
[42] = test system: M14 melanoma
[43] = test system: OVCAR-3 ovarian
[44] = test system: RXF 393 renal
[45] = test system: UACC-257 melanoma
[46] = test system: SF-268 CNS
[47] = test system: SN12C renal
[48] = test system: MDA-MB-435
[49] = test system: PC-3 prostate
[50] = test system: SK-MEL-28 melanoma
[51] = test system: SNB-75 CNS
[52] = test system: ACHN renal
[53] = test system: A549 NSCLC
[54] = test system: HL-60(TB) leukemia
[55] = test system: SR leukemia
[56] = test system: MOLT-4 leukemia
[57] = test system: SF-539 CNS
[58] = test system: K-562 leukemia

CS(=O)CCCCCN=C=S (stereo not drawn)
GI50 [1]: 3.07 µM
TGI [1]: 11.5 µM
GI50 [2]: 2.3 µM
TGI [2]: 13.2 µM
GI50 [3]: 10.4 µM
TGI [3]: 24.8 µM
GI50 [4]: 6.38 µM
TGI [4]: 36 µM
GI50 [5]: 4.72 µM
TGI [5]: 22 µM
GI50 [6]: 4.12 µM
TGI [6]: 18.6 µM
GI50 [7]: 0.782 µM
TGI [7]: 10.3 µM
GI50 [8]: 13.9 µM
TGI [8]: 28.8 µM
GI50 [9]: 4.1 µM
TGI [9]: 16.3 µM
GI50 [10]: 10.6 µM
TGI [10]: 25.5 µM
GI50 [11]: 3.79 µM
TGI [11]: 14.5 µM
GI50 [12]: 4.93 µM
TGI [12]: 22.1 µM
GI50 [13]: 12.5 µM
TGI [13]: 29.4 µM
GI50 [14]: 3.21 µM
TGI [14]: 12 µM
GI50 [15]: 16.1 µM
TGI [15]: 32.1 µM
GI50 [16]: 1.99 µM
TGI [16]: 5.87 µM
GI50 [17]: 2.9 µM
TGI [17]: 12.1 µM
GI50 [18]: 2.81 µM
TGI [18]: 10.6 µM
GI50 [19]: 4.42 µM
TGI [19]: 15.8 µM
GI50 [20]: 2.86 µM
TGI [20]: 10.2 µM
GI50 [21]: 3.55 µM
TGI [21]: 9.52 µM
GI50 [22]: 4 µM
TGI [22]: 17.2 µM
GI50 [23]: 3.69 µM
TGI [23]: 13.8 µM
GI50 [24]: 4.21 µM
TGI [24]: 24.5 µM
GI50 [25]: 3.47 µM
TGI [25]: 11.1 µM
GI50 [26]: 3.33 µM
TGI [26]: 13 µM
GI50 [27]: 2.32 µM
TGI [27]: 7.56 µM
GI50 [28]: 2.93 µM
TGI [28]: 12.5 µM
GI50 [29]: 13.7 µM
TGI [29]: 27.3 µM
GI50 [30]: 17.1 µM
TGI [30]: 31.4 µM
GI50 [31]: 3.43 µM
TGI [31]: 14.7 µM
GI50 [32]: 4.88 µM
TGI [32]: 21.6 µM
GI50 [33]: 5.68 µM
TGI [33]: 19.5 µM
GI50 [34]: 10.4 µM
TGI [34]: 23.5 µM
GI50 [35]: 4.76 µM
TGI [35]: 17.4 µM
GI50 [36]: 3.83 µM
TGI [36]: 10.3 µM
GI50 [37]: 4.1 µM
TGI [37]: 15.9 µM
GI50 [38]: 5.11 µM
TGI [38]: 22.8 µM
GI50 [39]: 2.53 µM
TGI [39]: 6.64 µM
GI50 [40]: 17.5 µM
TGI [40]: 44.4 µM
GI50 [41]: 5.3 µM
TGI [41]: 17.9 µM
GI50 [42]: 3.3 µM
TGI [42]: 14.6 µM
GI50 [43]: 3.07 µM
TGI [43]: 10.1 µM
GI50 [44]: 3.37 µM
TGI [44]: 9.45 µM
GI50 [45]: 4.35 µM
TGI [45]: 19.7 µM
GI50 [46]: 4.06 µM
TGI [46]: 17.4 µM
GI50 [47]: 3.44 µM
TGI [47]: 11.4 µM
GI50 [48]: 3.57 µM
TGI [48]: 15.8 µM
GI50 [49]: 11.6 µM
TGI [49]: 25.6 µM
GI50 [50]: 4.07 µM
TGI [50]: 16.8 µM
GI50 [51]: 3.01 µM
TGI [51]: 16.5 µM
GI50 [52]: 4.07 µM
TGI [52]: 16.5 µM
GI50 [53]: 7.52 µM
TGI [53]: 24.2 µM

COc1cc2c(cc1OCCOS(C)(=O)=O)N=C[C@@H]1CCCN1C2=O
TGI [2]: > 100 µM
TGI [3]: > 100 µM
TGI [4]: 81 µM
GI50 [5]: 13.5 µM
TGI [5]: 26.7 µM
GI50 [6]: 13.6 µM
TGI [6]: 31.6 µM
GI50 [7]: 15.7 µM
TGI [7]: 29.5 µM
TGI [8]: > 100 µM
GI50 [9]: 14.5 µM
TGI [9]: 54.9 µM
TGI [54]: 55.9 µM
GI50 [11]: 12.2 µM
TGI [11]: 48.8 µM
TGI [12]: > 100 µM
TGI [14]: > 100 µM
GI50 [55]: 11.1 µM
TGI [55]: 32.9 µM
TGI [15]: > 100 µM
GI50 [16]: 10.9 µM
TGI [16]: 30.1 µM
GI50 [17]: 16.5 µM
TGI [17]: 31.1 µM
TGI [18]: > 100 µM
GI50 [19]: 17.1 µM
TGI [19]: 31.7 µM
GI50 [20]: 18.5 µM
TGI [20]: 36.5 µM
TGI [21]: 50.6 µM
GI50 [22]: 15.2 µM
TGI [22]: 33.1 µM
GI50 [23]: 17.7 µM
TGI [23]: 32.1 µM
GI50 [24]: 12.2 µM
TGI [24]: 25.2 µM
TGI [25]: > 100 µM
TGI [26]: > 100 µM
TGI [27]: > 100 µM
GI50 [28]: 19.4 µM
TGI [28]: 42.5 µM
TGI [29]: > 100 µM
TGI [30]: 75.4 µM
TGI [31]: > 100 µM
TGI [32]: 99.1 µM
GI50 [33]: 17 µM
TGI [33]: 30.7 µM
GI50 [34]: 17.1 µM
TGI [34]: 48.7 µM
GI50 [35]: 16.5 µM
TGI [35]: 39.3 µM
GI50 [36]: 18.1 µM
TGI [36]: 33.2 µM
GI50 [37]: 14.6 µM
TGI [37]: 38.4 µM
TGI [38]: 58.5 µM
TGI [39]: > 100 µM
GI50 [40]: 15.4 µM
TGI [40]: 33.5 µM
GI50 [41]: 16.9 µM
TGI [41]: 42.2 µM
GI50 [42]: 18.7 µM
TGI [42]: 34.6 µM
GI50 [43]: 16.3 µM
TGI [43]: 31.3 µM
TGI [56]: 65.8 µM
TGI [44]: > 100 µM
GI50 [45]: 18.2 µM
TGI [45]: 42.8 µM
TGI [46]: > 100 µM
TGI [47]: > 100 µM
TGI [48]: 37.7 µM
GI50 [57]: 18.6 µM
TGI [57]: 47.2 µM
TGI [50]: 61.5 µM
TGI [51]: > 100 µM
GI50 [52]: 16 µM
TGI [52]: 29.5 µM
TGI [53]: > 100 µM

Cn1nc(/C=C\C(=O)N2CC(CCl)c3c2cc(N)c2ccccc32)cc1/C=C/C(=O)N1CC(CCl)c2c1cc(N)c1ccccc21 (stereo not drawn)
TGI [1]: < 0.01 µM
TGI [2]: > 100 µM
TGI [3]: 0.0965 µM
TGI [5]: 0.295 µM
TGI [9]: < 0.01 µM
TGI [10]: < 0.01 µM
TGI [13]: 0.0411 µM
TGI [15]: 0.591 µM
TGI [23]: < 0.01 µM
TGI [26]: > 100 µM
TGI [27]: > 100 µM
TGI [28]: < 0.01 µM
TGI [58]: > 100 µM
TGI [29]: > 100 µM
TGI [35]: < 0.01 µM
TGI [37]: > 100 µM
TGI [38]: > 100 µM
TGI [39]: > 100 µM
TGI [40]: < 0.01 µM
TGI [42]: < 0.01 µM
TGI [56]: > 100 µM
TGI [49]: 0.0596 µM
TGI [52]: > 100 µM
